Reference: publication PMC5943945, “Design, Synthesis and Cytotoxic Evaluation of Novel Chalcone Derivatives Bearing Triazolo[4,3-a]-quinoxaline Moieties as Potent Anticancer Agents with Dual EGFR Kinase and Tubulin Polymerization Inhibitory Effects” (Molecules : A Journal of Synthetic Chemistry and Natural …, 2017)
“And” between values parts separate entries of the source, which are not always exact repeats. Equal values may be shown once. Read-outs that look alike come from different tables or passages of the source.

Tests used:
HCT-116 = experiment: MTT cytotoxicity assay, HCT-116; format: cell-based; conditions: Homo sapiens, 72 h exposure, mean ± SD
Method: (§1) The newly synthesized chalcone compounds 7a–k were evaluated for their in vitro anticancer activity against three cancer cell lines—HCT-116, MCF-7 and HepG-2—according to the MTT assay method using doxorubicin as reference drug.
(§2) The in vitro anticancer activities of the selected chalcone compounds against three cancer cell lines: human colon carcinoma (HCT-116), human hepatocellular carcinoma (HEPG-2), and human breast adenocarcinoma (MCF-7) were evaluated as described with some modifications. Target tumor cells were grown to log phase in DMEM medium supplemented with 10% fetal bovine serum. After diluting to 1 × 10^5 cells mL^−1 with the medium, 100 μL of the obtained cell suspension was added to each well of 96-well culture plates. Subsequently, incubation was performed at 37 °C in 5% CO2 atmosphere for 48 h before the cytotoxicity assessment. Tested samples at preset concentrations were added to 6 wells with doxorubicin being employed as a positive reference. After 72 h exposure period, 25 μL of PBS containing 2.5 mg mL^−1 of MTT was added to each well. After 4 h, the medium was replaced by 150 μL DMSO to dissolve the purple formazan crystals produced. The absorbance at 570 nm of each well was measured with an ELISA plate reader. The data represented the mean of three independent experiments in triplicate and were expressed as means ± SD.

HepG-2 = experiment: MTT cytotoxicity assay, HepG-2; format: cell-based; conditions: Homo sapiens, HepG2, 72 h exposure, mean ± SD
Method: as §1, §2

MCF-7 = experiment: MTT cytotoxicity assay, MCF-7; format: cell-based; conditions: Homo sapiens, MCF7, 72 h exposure, mean ± SD
Method: as §1, §2

[1] = system: HCT-116, MCF-7 and HepG-2; experiment: MTT cytotoxicity, statements across the three cell lines; format: cell-based, human; conditions: for anticancer activity in words: three cell lines, MTT; for IC50: Homo sapiens, range over HCT-116, MCF-7, HepG-2, read-out: IC50 against the three cell lines (range given)
Method: as §1, §2

tubulin = molecular target: T1, tubulin (Homo sapiens, UniProt P07437+P68363); experiment: Tubulin polymerization / ELISA for Tubulin Beta (TUBb) in HCT-116 cells; format: cell-based
T1 construct: The HCT-116 cell line was obtained from the American Type Culture Collection; endogenous in cells; host or cells: HCT-116
Method: Tubulin is the principal component of the eukaryotic cytoskeleton and participates in several crucial cellular processes, including cell replication.
Plate cells (cells density 1.2–1.8 × 10^3 cells/well) in a volume of […] complete growth medium and […] of the tested compound per well in a 96-well plate for 18–24 h before the enzyme assay for tubulin. […] Standards or samples are then added to the appropriate microtiter plate wells with a biotin-conjugated antibody specific to TUBb. Next, avidin conjugated to horseradish peroxidase (HRP) is added to each microplate well and incubated. […] The enzyme-substrate reaction is terminated by the addition of sulphuric acid solution and the color change is measured spectrophotometrically at a wavelength of 450 ± 10 nm. The concentration of TUBb in the samples is then determined by comparing the O.D. of the samples to the standard curve.

EGFR TK = molecular target: T2, EGFR TK (Homo sapiens, UniProt P00533); experiment: EGFR inhibition assay (HTScan EGFR kinase assay kit); format: biochemical; conditions: averages of three independent experiments; compounds tested at concentration of 10 μM; 400 μM ATP
T2 construct: purchased Cell Signaling Technology
Method: As the designed compounds had good antiproliferative activity, in vitro EGFR inhibition capability was firstly evaluated for the target cytotoxic derivatives to see whether their cytotoxicity was mediated by kinase inhibition. […]. EGFR kinase activity was assessed using HTScan EGFR kinase assay kits (Cell Signaling Technology, Danvers, MA, USA). The experiments were performed according to the manufacturer’s instructions. […] Phosphorylated substrate was captured with strapavidin-coated 96-well plates. The level of phosphorylation was monitored by anti-phosphotyrosine and europium-labeled secondary antibodies (DELFIA, Perkin-Elmer, Akron, OH, USA). The enhancement solution was added at the end of the assay and enzyme activity was measured in a Victor II 1420 microplate reader (Wallac, Boston, MA, USA) at […].

[2] = averages of two independent experiments, read-out: Tubulin Polymerization (IC50 µM)

T2 sequence (P00533 25-1210): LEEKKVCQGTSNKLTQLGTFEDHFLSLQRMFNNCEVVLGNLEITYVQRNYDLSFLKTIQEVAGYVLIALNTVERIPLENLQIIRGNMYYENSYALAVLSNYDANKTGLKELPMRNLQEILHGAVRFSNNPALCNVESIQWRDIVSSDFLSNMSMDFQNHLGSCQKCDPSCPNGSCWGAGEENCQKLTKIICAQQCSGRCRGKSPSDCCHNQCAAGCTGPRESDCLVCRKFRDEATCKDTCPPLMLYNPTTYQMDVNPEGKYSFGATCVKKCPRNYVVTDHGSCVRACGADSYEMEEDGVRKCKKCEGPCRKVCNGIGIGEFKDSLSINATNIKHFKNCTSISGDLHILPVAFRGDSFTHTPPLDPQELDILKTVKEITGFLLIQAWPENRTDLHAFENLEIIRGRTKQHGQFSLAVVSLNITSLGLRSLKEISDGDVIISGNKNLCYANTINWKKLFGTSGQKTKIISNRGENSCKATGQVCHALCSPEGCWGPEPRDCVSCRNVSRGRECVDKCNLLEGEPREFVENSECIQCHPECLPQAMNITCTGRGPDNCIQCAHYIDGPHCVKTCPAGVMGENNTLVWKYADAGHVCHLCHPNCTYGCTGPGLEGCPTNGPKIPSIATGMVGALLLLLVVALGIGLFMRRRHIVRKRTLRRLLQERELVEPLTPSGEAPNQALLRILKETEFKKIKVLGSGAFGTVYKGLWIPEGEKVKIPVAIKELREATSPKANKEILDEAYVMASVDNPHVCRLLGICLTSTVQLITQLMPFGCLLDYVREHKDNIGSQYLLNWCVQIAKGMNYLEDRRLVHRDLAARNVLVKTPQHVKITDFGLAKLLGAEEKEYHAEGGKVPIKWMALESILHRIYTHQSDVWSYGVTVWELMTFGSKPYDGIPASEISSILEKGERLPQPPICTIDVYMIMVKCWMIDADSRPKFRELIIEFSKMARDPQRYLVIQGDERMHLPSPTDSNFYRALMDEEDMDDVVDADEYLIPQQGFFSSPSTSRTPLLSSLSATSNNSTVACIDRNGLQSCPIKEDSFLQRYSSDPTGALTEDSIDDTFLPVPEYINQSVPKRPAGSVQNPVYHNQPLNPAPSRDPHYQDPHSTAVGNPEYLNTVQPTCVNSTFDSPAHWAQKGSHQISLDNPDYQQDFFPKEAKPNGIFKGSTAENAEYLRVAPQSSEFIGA
T1 sequence (P07437 whole entry): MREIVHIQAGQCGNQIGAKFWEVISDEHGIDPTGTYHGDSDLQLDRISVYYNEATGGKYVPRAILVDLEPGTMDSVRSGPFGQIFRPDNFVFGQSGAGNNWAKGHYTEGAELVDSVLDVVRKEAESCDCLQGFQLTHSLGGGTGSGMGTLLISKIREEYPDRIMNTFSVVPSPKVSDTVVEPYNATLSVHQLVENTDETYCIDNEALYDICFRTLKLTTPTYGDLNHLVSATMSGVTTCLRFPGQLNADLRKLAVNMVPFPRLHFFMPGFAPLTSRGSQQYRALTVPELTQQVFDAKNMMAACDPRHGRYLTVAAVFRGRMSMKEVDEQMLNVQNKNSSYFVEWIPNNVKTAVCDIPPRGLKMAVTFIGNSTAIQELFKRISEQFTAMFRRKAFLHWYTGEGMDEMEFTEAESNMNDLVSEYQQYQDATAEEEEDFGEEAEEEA
T1 sequence (P68363 whole entry): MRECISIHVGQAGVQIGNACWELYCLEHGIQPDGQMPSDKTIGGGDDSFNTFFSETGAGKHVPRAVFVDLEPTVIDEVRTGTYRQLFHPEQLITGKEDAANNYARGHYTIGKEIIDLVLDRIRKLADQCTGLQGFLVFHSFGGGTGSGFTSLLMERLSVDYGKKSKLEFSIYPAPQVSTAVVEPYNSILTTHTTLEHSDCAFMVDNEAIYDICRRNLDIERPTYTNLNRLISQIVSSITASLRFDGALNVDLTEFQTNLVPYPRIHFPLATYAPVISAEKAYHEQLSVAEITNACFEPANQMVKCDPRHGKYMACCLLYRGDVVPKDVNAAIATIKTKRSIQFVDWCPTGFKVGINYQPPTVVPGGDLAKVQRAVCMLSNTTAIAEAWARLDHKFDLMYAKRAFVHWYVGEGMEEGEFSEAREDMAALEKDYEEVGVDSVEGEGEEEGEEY

| SMILES | melting point [°C] | IC50 (tubulin; [2]) [µM] | IC50 (EGFR TK) | IC50 (tubulin; abstract text, read-out: antitubulin polymerization activity (abstract)) [µM] | IC50 (HCT-116) [µM] | IC50 (HepG-2) [µM] | IC50 (MCF-7) [µM] | anticancer activity in words [1] | IC50 [1] [µM] |
| --- | --- | --- | --- | --- | --- | --- | --- | --- | --- |
| CCc1nnc2c(Cl)nc3ccccc3n12 [Compound 5, 4-Chloro-1-ethyl-[1,2,4]triazolo[4,3-a]quinoxaline] | 158 to 160 |  |  |  | 236 ± 0.1 | 322 ± 0.15 | 246 ± 0.13 |  |  |
| CCc1nnc2c(Nc3ccc(C(C)=O)cc3)nc3ccccc3n12 [Compound 6, 1-(4-((1-ethyl-[1,2,4]triazolo[4,3-a]quinoxalin-4-yl)amino)phenyl)ethan-1-one] | 235 to 237 |  |  |  | 411 ± 0.21 | 446 ± 0.2 | 410 ± 0.25 |  |  |
| CCc1nnc2c(Nc3ccc(C(=O)/C=C/c4ccccc4)cc3)nc3ccccc3n12 [Compound 7a, (E)-1-(4-((1-Ethyl-[1,2,4]triazolo[4,3-a]quinoxalin-4-yl)amino)phenyl)-3-phenylprop-2-en-1-one] | 260 to 262 | 77.1 ± 0.21 | 0.661 ± 0.00011 µM |  | 57.49 ± 0.29 | 105.2 ± 0.5 | 58.92 ± 0.32 | did not show significant activity |  |
| CCc1nnc2c(Nc3ccc(C(=O)/C=C/c4ccccc4OC)cc3)nc3ccccc3n12 [Compound 7b, (E)-1-(4-((1-Ethyl-[1,2,4]triazolo[4,3-a]quinoxalin-4-yl)amino)phenyl)-3-(2-methoxyphenyl)prop-2-en-1-one] | 264 to 266 | 18.1 ± 0.3 | 0.127 to 0.136 µM and 0.127 µM |  | 25.6 ± 0.03 | 30.72 ± 0.12 | 24.04 ± 0.12 |  | 1.65 to 34.3 |
| CCc1nnc2c(Nc3ccc(C(=O)/C=C/c4ccccc4O)cc3)nc3ccccc3n12 [Compound 7c, (E)-1-(4-((1-Ethyl-[1,2,4]triazolo[4,3-a]quinoxalin-4-yl)amino)phenyl)-3-(2-hydroxyphenyl)prop-2-en-1-one] | 261 to 263 | 43.4 ± 0.01 | 0.127 to 0.136 µM and 0.136 µM |  | 19.8 ± 0.23 | 17.32 ± 0.12 | 22.17 ± 0.11 |  |  |
| CCc1nnc2c(Nc3ccc(C(=O)/C=C/c4ccc(C)cc4)cc3)nc3ccccc3n12 [Compound 7d, (E)-1-(4-((1-Ethyl-[1,2,4]triazolo[4,3-a]quinoxalin-4-yl)amino)phenyl)-3-(p-tolyl)prop-2-en-1-one] | 247 to 249 |  | > 100 µM |  | > 100 | > 100 | 93.4 ± 0.14 | low activity |  |
| COc1cccc2c1C(=O)c1c(O)c3c(c(O)c1C2=O)C[C@@](O)(C(=O)CO)C[C@@H]3O[C@H]1C[C@H](N)[C@H](O)[C@H](C)O1 [Doxorubicin, reference compound] |  |  |  |  | 1.55 ± 0.03 | 0.22 ± 0.01 | 0.27 ± 0.08 |  |  |

Continued, in another order:

| melting point [°C] | IC50 (tubulin; [2]) [µM] | IC50 (EGFR TK) | IC50 (tubulin; abstract text, read-out: antitubulin polymerization activity (abstract)) [µM] | SMILES | IC50 (HCT-116) [µM] | IC50 (HepG-2) [µM] | IC50 (MCF-7) [µM] | anticancer activity in words [1] | IC50 [1] [µM] |
| --- | --- | --- | --- | --- | --- | --- | --- | --- | --- |
|  | 14.7 ± 0.11 | 0.083 ± 0.04 µM |  | CCc1nnc2c(Nc3ccc(C(=O)/C=C/c4ccc(OC)cc4)cc3)nc3ccccc3n12 [Compound 7e, (E)-1-(4-((1-Ethyl-[1,2,4]triazolo[4,3-a]quinoxalin-4-yl)amino)phenyl)-3-(4-methoxyphenyl)prop-2-en-1-one] | 9.57 ± 0.11 | 34.28 ± 0.14 | 8.23 ± 0.25 |  | 1.65 to 34.3 |
| 253 to 255 | > 100 | > 50 µM |  | CCc1nnc2c(Nc3ccc(C(=O)/C=C/c4ccc(O)cc4)cc3)nc3ccccc3n12 [Compound 7f, (E)-1-(4-((1-Ethyl-[1,2,4]triazolo[4,3-a]quinoxalin-4-yl)amino)phenyl)-3-(4-hydroxyphenyl)prop-2-en-1-one] | 18.1 ± 0.15 | > 100 | > 100 |  |  |
|  | 8.84 ± 0.02 | 0.039 µM | 8.4 | CCc1nnc2c(Nc3ccc(C(=O)/C=C/c4cc(OC)c(OC)c(OC)c4)cc3)nc3ccccc3n12 [Compound 7g, (E)-1-(4-((1-Ethyl-[1,2,4]triazolo[4,3-a]quinoxalin-4-yl)amino)phenyl)-3-(3,4,5-trimethoxyphenyl)prop-2-en-1-one] | 3.61 ± 0.18 | 8.58 ± 0.06 | 1.65 ± 0.13 |  | 1.65 to 34.3 |
| 260 to 262 | > 100 | > 100 µM |  | CCc1nnc2c(Nc3ccc(C(=O)/C=C/c4ccc([N+](=O)[O-])cc4)cc3)nc3ccccc3n12 [Compound 7h, (E)-1-(4-((1-Ethyl-[1,2,4]triazolo[4,3-a]quinoxalin-4-yl)amino)phenyl)-3-(4-nitrophenyl)prop-2-en-1-one] | > 100 | > 100 | > 100 |  |  |
| 255 to 257 | > 100 | > 100 µM |  | CCc1nnc2c(Nc3ccc(C(=O)/C=C/c4ccc(Cl)cc4)cc3)nc3ccccc3n12 [Compound 7i, (E)-3-(4-Chlorophenyl)-1-(4-((1-ethyl-[1,2,4]triazolo[4,3-a]quinoxalin-4-yl)amino)phenyl)prop-2-en-1-one] | > 100 | > 100 | > 100 |  |  |
| 250 to 252 | > 100 | > 100 µM |  | CCc1nnc2c(Nc3ccc(C(=O)/C=C/c4ccc(Cl)cc4Cl)cc3)nc3ccccc3n12 [Compound 7j, (E)-3-(2,4-Dichlorophenyl)-1-(4-((1-ethyl-[1,2,4]triazolo[4,3-a]quinoxalin-4-yl)amino)phenyl)prop-2-en-1-one] | > 100 | > 100 | > 100 |  |  |
| 250 to 252 | > 100 | > 100 µM |  | CCc1nnc2c(Nc3ccc(C(=O)/C=C/c4c(Cl)cccc4Cl)cc3)nc3ccccc3n12 [Compound 7k, (E)-3-(2,6-Dichlorophenyl)-1-(4-((1-ethyl-[1,2,4]triazolo[4,3-a]quinoxalin-4-yl)amino)phenyl)prop-2-en-1-one] | 19.7 ± 0.25 | > 100 | > 100 |  |  |
